Source: PubChem BioAssay AID1963437 (Molecular Pharmacology Branch, DTP, NCI, 2024)

System: OVCAR-8 complex spheroid, growth inhibition
Assay: Anticancer human tumor OVCAR-8 cell line growth inhibition [Asc];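 also: spheroids exposed to agents for 7 days before readout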;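 as to viability, T/C: percent viability relative to DMSO vehicle wells taken as 100%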
Details: for IC50: curve of first compound; for viability, T/C: stronger effect = lower value
How it was run: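 Tumor cells were grown as complex spheroids with human endothelial cells (HUVEC) and human mesenchymal stem cells as stroma. Agents were tested alone and in combination, in half-log steps down from the clinical Cmax, or from 10 microM where Cmax was unknown.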

**Q.** Which results are given for `CNC(C)C(=O)NC1CN(S(=O)(=O)c2cccc(S(=O)(=O)N3CCC4CCC(C(=O)NC(c5ccccc5)c5ccccc5)N4C(=O)C(NC(=O)C(C)NC)C3)c2)CCC2CCC(C(=O)NC(c3ccccc3)c3ccccc3)N2C1=O` (centres undefined) + Cc1c(S(C)(=O)=O)c(-c2cc(F)cc(N3CCN(c4ccc(NS(=O)(=O)c5ccc(NC(CCN6CCC(C(=O)OCCCP(=O)(O)O)CC6)CSc6ccccc6)c(S(=O)(=O)C(F)(F)F)c5)cc4)CC3)c2)c(-c2ccc(Cl)cc2)n1C(C)C?
**A.** IC50 (second compound 0.0316 µM): > 1000 nM; IC50 (second compound 0.1 µM): > 1000 nM; IC50 (second compound 0.316 µM): > 1000 nM; IC50 (second compound 1 µM): > 1000 nM; IC50 (second compound 3.16 µM): > 1000 nM; IC50 (second compound 10 µM): > 1000 nM; viability, T/C (second compound 0.0316 µM, first compound 0.00316 µM): 97.5%; viability, T/C (second compound 0.0316 µM, first compound 0.01 µM): 94.6%; viability, T/C (second compound 0.0316 µM, first compound 0.0316 µM): 88.4%; viability, T/C (second compound 0.0316 µM, first compound 0.1 µM): 90.9%; viability, T/C (second compound 0.0316 µM, first compound 0.316 µM): 67.5%; viability, T/C (second compound 0.0316 µM, first compound 1 µM): 57.5%; viability, T/C (second compound 0.1 µM, first compound 0.00316 µM): 92.2%; viability, T/C (second compound 0.1 µM, first compound 0.01 µM): 84.5%; viability, T/C (second compound 0.1 µM, first compound 0.0316 µM): 80.8%; viability, T/C (second compound 0.1 µM, first compound 0.1 µM): 76.5%; viability, T/C (second compound 0.1 µM, first compound 0.316 µM): 64.5%; viability, T/C (second compound 0.1 µM, first compound 1 µM): 59.7%; viability, T/C (second compound 0.316 µM, first compound 0.00316 µM): 106%; viability, T/C (second compound 0.316 µM, first compound 0.01 µM): 79.2%; viability, T/C (second compound 0.316 µM, first compound 0.0316 µM): 86.8%; viability, T/C (second compound 0.316 µM, first compound 0.1 µM): 80.3%; viability, T/C (second compound 0.316 µM, first compound 0.316 µM): 58.9%; viability, T/C (second compound 0.316 µM, first compound 1 µM): 53.1%; viability, T/C (second compound 1 µM, first compound 0.00316 µM): 123%; viability, T/C (second compound 1 µM, first compound 0.01 µM): 97.1%; viability, T/C (second compound 1 µM, first compound 0.0316 µM): 86.8%; viability, T/C (second compound 1 µM, first compound 0.1 µM): 80.6%; viability, T/C (second compound 1 µM, first compound 0.316 µM): 59.4%; viability, T/C (second compound 1 µM, first compound 1 µM): 60.1%; viability, T/C (second compound 3.16 µM, first compound 0.00316 µM): 91.2%; viability, T/C (second compound 3.16 µM, first compound 0.01 µM): 86.8%; viability, T/C (second compound 3.16 µM, first compound 0.0316 µM): 84.7%; viability, T/C (second compound 3.16 µM, first compound 0.1 µM): 67.3%; viability, T/C (second compound 3.16 µM, first compound 0.316 µM): 57.5%; viability, T/C (second compound 3.16 µM, first compound 1 µM): 58.2%; viability, T/C (second compound 10 µM, first compound 0.00316 µM): 101%; viability, T/C (second compound 10 µM, first compound 0.01 µM): 78.2%; viability, T/C (second compound 10 µM, first compound 0.0316 µM): 78.9%; viability, T/C (second compound 10 µM, first compound 0.1 µM): 60.2%; viability, T/C (second compound 10 µM, first compound 0.316 µM): 52%; viability, T/C (second compound 10 µM, first compound 1 µM): 59.2%

**Q.** Which results are given for `Cc1nc(N2CCC3(CC2)COC(C)C3N)c(CO)nc1Sc1ccnc(N)c1Cl` (centres undefined) + Cc1c(S(C)(=O)=O)c(-c2cc(F)cc(N3CCN(c4ccc(NS(=O)(=O)c5ccc(NC(CCN6CCC(C(=O)OCCCP(=O)(O)O)CC6)CSc6ccccc6)c(S(=O)(=O)C(F)(F)F)c5)cc4)CC3)c2)c(-c2ccc(Cl)cc2)n1C(C)C?
**A.** IC50 (second compound 0.0316 µM): > 3000 nM; IC50 (second compound 0.1 µM): > 3000 nM; IC50 (second compound 0.316 µM): > 3000 nM; IC50 (second compound 1 µM): > 3000 nM; IC50 (second compound 3.16 µM): > 3000 nM; IC50 (second compound 10 µM): > 3000 nM; viability, T/C (second compound 0.0316 µM, first compound 0.00949 µM): 97%; viability, T/C (second compound 0.0316 µM, first compound 0.03 µM): 96.6%; viability, T/C (second compound 0.0316 µM, first compound 0.0949 µM): 159%; viability, T/C (second compound 0.0316 µM, first compound 0.3 µM): 188%; viability, T/C (second compound 0.0316 µM, first compound 0.949 µM): 226%; viability, T/C (second compound 0.0316 µM, first compound 3 µM): 206%; viability, T/C (second compound 0.1 µM, first compound 0.00949 µM): 91.3%; viability, T/C (second compound 0.1 µM, first compound 0.03 µM): 148%; viability, T/C (second compound 0.1 µM, first compound 0.0949 µM): 152%; viability, T/C (second compound 0.1 µM, first compound 0.3 µM): 190%; viability, T/C (second compound 0.1 µM, first compound 0.949 µM): 212%; viability, T/C (second compound 0.1 µM, first compound 3 µM): 202%; viability, T/C (second compound 0.316 µM, first compound 0.00949 µM): 97.4%; viability, T/C (second compound 0.316 µM, first compound 0.03 µM): 132%; viability, T/C (second compound 0.316 µM, first compound 0.0949 µM): 176%; viability, T/C (second compound 0.316 µM, first compound 0.3 µM): 200%; viability, T/C (second compound 0.316 µM, first compound 0.949 µM): 231%; viability, T/C (second compound 0.316 µM, first compound 3 µM): 175%; viability, T/C (second compound 1 µM, first compound 0.00949 µM): 92.6%; viability, T/C (second compound 1 µM, first compound 0.03 µM): 139%; viability, T/C (second compound 1 µM, first compound 0.0949 µM): 176%; viability, T/C (second compound 1 µM, first compound 0.3 µM): 210%; viability, T/C (second compound 1 µM, first compound 0.949 µM): 205%; viability, T/C (second compound 1 µM, first compound 3 µM): 169%; viability, T/C (second compound 3.16 µM, first compound 0.00949 µM): 102%; viability, T/C (second compound 3.16 µM, first compound 0.03 µM): 139%; viability, T/C (second compound 3.16 µM, first compound 0.0949 µM): 182%; viability, T/C (second compound 3.16 µM, first compound 0.3 µM): 221%; viability, T/C (second compound 3.16 µM, first compound 0.949 µM): 167%; viability, T/C (second compound 3.16 µM, first compound 3 µM): 144%; viability, T/C (second compound 10 µM, first compound 0.00949 µM): 110%; viability, T/C (second compound 10 µM, first compound 0.03 µM): 152%; viability, T/C (second compound 10 µM, first compound 0.0949 µM): 177%; viability, T/C (second compound 10 µM, first compound 0.3 µM): 206%; viability, T/C (second compound 10 µM, first compound 0.949 µM): 174%; viability, T/C (second compound 10 µM, first compound 3 µM): 121%
